Results taken from patent US20160022684A1, “BET INHIBITOR AND BRUTON'S TYROSINE KINASE INHIBITOR COMBINATIONS” (Pharmacyclics LLC, priority 2014, published 2016).

What was measured:
Format in all cases: cell-based
OCI-LY10 = assay: Combined drug treatment cell viability (CellTiter-Glo), ibrutinib with BET inhibitors, OCI-LY10; conditions: OCI-LY-10, JQ1 1 uM, 3 days
Description: (§1) The DLBCL cell lines used during the experiments included TMD8, OCI-LY3, OCI-LY10, U-2932 and SU-DHL-2. DLBCL cells at either 1×10^4 cells or 2×10^4 cells were plated onto each well of a 96-W plate (Table 1). […] The 96-W plate was then incubated for 3 days. Cell viability was examined using a CellTiter-Glo assay. A 40 μL of CellTiter-Glo reagent was added directly into each well of the 96-W plate. The plate was then shaken on a Shaker ([…]) at speed 5 for 10-20 min at room temperature. Next, about 100 μL of the mixed medium was transferred to a white, non-transparent, flat bottom 96-W plate for assaying. […] Measurements were taken at room temperature. CellTiter-Glow reagents were thawed prior to use. Cells pre-plated onto a second 96-W plate and incubated at room temperature for 30 minutes were used for calibration purposes. […] CI is a quantitative description of the interaction property of the combination of two drugs.

TMD8 = assay: Combined drug treatment cell viability (CellTiter-Glo), ibrutinib with BET inhibitors, TMD8; conditions: JQ1 20 nM, 3 days
Description: as §1

OCI-LY3 = assay: Combined drug treatment cell viability (CellTiter-Glo), ibrutinib with BET inhibitors, OCI-LY3; conditions: OCI-LY-3, JQ1 1 uM, 3 days
Description: as §1

U-2932 = assay: Combined drug treatment cell viability (CellTiter-Glo), ibrutinib with BET inhibitors, U-2932; conditions: U2932, JQ1 20 nM, 3 days
Description: as §1

SU-DHL-2 = assay: Combined drug treatment cell viability (CellTiter-Glo), ibrutinib with BET inhibitors, SU-DHL-2; conditions: JQ1 100 nM, 3 days
Description: as §1

[1] = ibrutinib 0 nM (BET inhibitor alone): I-BET151 5 uM, OTX015 1 uM
[2] = ibrutinib 0.0256 nM with I-BET151 5 uM, OTX015 1 uM or medium alone (row)
[3] = ibrutinib 0.64 nM with I-BET151 5 uM, OTX015 1 uM or medium alone (row)
[4] = ibrutinib 3.2 nM with I-BET151 5 uM, OTX015 1 uM or medium alone (row)
[5] = ibrutinib 16 nM with I-BET151 5 uM, OTX015 1 uM or medium alone (row)
[6] = ibrutinib 80 nM with I-BET151 5 uM, OTX015 1 uM or medium alone (row)
[7] = ibrutinib 400 nM with I-BET151 5 uM, OTX015 1 uM or medium alone (row)
[8] = ibrutinib 2000 nM with I-BET151 5 uM, OTX015 1 uM or medium alone (row)
[9] = ibrutinib 10000 nM with I-BET151 5 uM, OTX015 1 uM or medium alone (row)
[10] = ibrutinib […] with I-BET151 5 uM, OTX015 1 uM or medium alone (row)

In the case of `COc1cc2c(cc1-c1c(C)noc1C)ncc1[nH]c(=O)n([C@H](C)c3ccccn3)c12` [I-BET151], the luminescent signals (OCI-LY10; [1]) is reported as 43633.29, the luminescent signals (OCI-LY10; [2]) is reported as 41108.85 and the luminescent signals (OCI-LY10; [3]) is reported as 38594.93. For the same compound, the luminescent signals (OCI-LY10; [4]) was 31834.18, the luminescent signals (OCI-LY10; [5]) was 23382.58 and the luminescent signals (OCI-LY10; [6]) was 21683.85. The luminescent signals (OCI-LY10; [7]) was 21781.14, the luminescent signals (OCI-LY10; [8]) was 22475.36 and the luminescent signals (OCI-LY10; [9]) was 21920.51. For the same compound, the luminescent signals (OCI-LY10; [10]) was 38721.15, the luminescent signals (TMD8; ibrutinib 0 nM (BET inhibitor alone): I-BET151 200 nM, OTX015 100 nM) was 53526.63 and the luminescent signals (TMD8; ibrutinib 0.0256 nM with I-BET151 200 nM, OTX015 100 nM or medium alone (row)) was 14177.65. It also gave a luminescent signals (TMD8; ibrutinib 0.64 nM with I-BET151 200 nM, OTX015 100 nM or medium alone (row)) of 12722.72, a luminescent signals (TMD8; ibrutinib 3.2 nM with I-BET151 200 nM, OTX015 100 nM or medium alone (row)) of 11655.25 and a luminescent signals (TMD8; ibrutinib 16 nM with I-BET151 200 nM, OTX015 100 nM or medium alone (row)) of 11328.42. The luminescent signals (TMD8; ibrutinib 80 nM with I-BET151 200 nM, OTX015 100 nM or medium alone (row)) was 11526.1, the luminescent signals (TMD8; ibrutinib 400 nM with I-BET151 200 nM, OTX015 100 nM or medium alone (row)) was 11191.36 and the luminescent signals (TMD8; ibrutinib 2000 nM with I-BET151 200 nM, OTX015 100 nM or medium alone (row)) was 11183.45. The luminescent signals (TMD8; ibrutinib 10000 nM with I-BET151 200 nM, OTX015 100 nM or medium alone (row)) was 6995.257, the luminescent signals (TMD8; ibrutinib […] with I-BET151 200 nM, OTX015 100 nM or medium alone (row)) was 13950.98 and the luminescent signals (OCI-LY3; [1]) was 14156.55. It also gave a luminescent signals (OCI-LY3; [2]) of 15418.7, a luminescent signals (OCI-LY3; [3]) of 15156.3 and a luminescent signals (OCI-LY3; [4]) of 13849.54. It also gave a luminescent signals (OCI-LY3; [5]) of 14914.89, a luminescent signals (OCI-LY3; [6]) of 13899.4 and a luminescent signals (OCI-LY3; [7]) of 15392.46. The luminescent signals (OCI-LY3; [8]) was 13151.56, the luminescent signals (OCI-LY3; [9]) was 14424.2 and the luminescent signals (OCI-LY3; [10]) was 12962.63. For the same compound, the luminescent signals (U-2932; ibrutinib 0 nM (BET inhibitor alone): I-BET151 200 nM, OTX015 50 nM (Table 2)) was 50367.82, the luminescent signals (U-2932; ibrutinib 0.0256 nM with I-BET151 200 nM, OTX015 50 nM (Table 2) or medium alone (row)) was 45116.29 and the luminescent signals (U-2932; ibrutinib 0.64 nM with I-BET151 200 nM, OTX015 50 nM (Table 2) or medium alone (row)) was 42565.61. The luminescent signals (U-2932; ibrutinib 3.2 nM with I-BET151 200 nM, OTX015 50 nM (Table 2) or medium alone (row)) was 43472.05, the luminescent signals (U-2932; ibrutinib 16 nM with I-BET151 200 nM, OTX015 50 nM (Table 2) or medium alone (row)) was 43980.61 and the luminescent signals (U-2932; ibrutinib 80 nM with I-BET151 200 nM, OTX015 50 nM (Table 2) or medium alone (row)) was 43659.14. It also gave a luminescent signals (U-2932; ibrutinib 400 nM with I-BET151 200 nM, OTX015 50 nM (Table 2) or medium alone (row)) of 44468.08, a luminescent signals (U-2932; ibrutinib 2000 nM with I-BET151 200 nM, OTX015 50 nM (Table 2) or medium alone (row)) of 42568.25 and a luminescent signals (U-2932; ibrutinib 10000 nM with I-BET151 200 nM, OTX015 50 nM (Table 2) or medium alone (row)) of 32015.12. The luminescent signals (U-2932; ibrutinib […] with I-BET151 200 nM, OTX015 50 nM (Table 2) or medium alone (row)) was 44167.69, the luminescent signals (SU-DHL-2; ibrutinib 0 nM (BET inhibitor alone): I-BET151 2 uM, OTX015 1 uM (Table 2)) was 793.343 and the luminescent signals (SU-DHL-2; ibrutinib 0.0256 nM with I-BET151 2 uM, OTX015 1 uM (Table 2) or medium alone (row)) was 714.534. It also gave a luminescent signals (SU-DHL-2; ibrutinib 0.64 nM with I-BET151 2 uM, OTX015 1 uM (Table 2) or medium alone (row)) of 704.027, a luminescent signals (SU-DHL-2; ibrutinib 3.2 nM with I-BET151 2 uM, OTX015 1 uM (Table 2) or medium alone (row)) of 809.105 and a luminescent signals (SU-DHL-2; ibrutinib 16 nM with I-BET151 2 uM, OTX015 1 uM (Table 2) or medium alone (row)) of 843.256. For the same compound, the luminescent signals (SU-DHL-2; ibrutinib 80 nM with I-BET151 2 uM, OTX015 1 uM (Table 2) or medium alone (row)) was 922.065, the luminescent signals (SU-DHL-2; ibrutinib 400 nM with I-BET151 2 uM, OTX015 1 uM (Table 2) or medium alone (row)) was 798.597 and the luminescent signals (SU-DHL-2; ibrutinib 2000 nM with I-BET151 2 uM, OTX015 1 uM (Table 2) or medium alone (row)) was 717.161. The luminescent signals (SU-DHL-2; ibrutinib 10000 nM with I-BET151 2 uM, OTX015 1 uM (Table 2) or medium alone (row)) was 585.813 and the luminescent signals (SU-DHL-2; ibrutinib […] with I-BET151 2 uM, OTX015 1 uM (Table 2) or medium alone (row)) was 835.375.
